According to US5821331A, “Anti-picornaviral agents” (Eli Lilly and Company, priority 1996, dated 1998):
Where a SMILES comes first, the peptide text is derived from it. The star is where a group is joined. Boc = CC(C)(C)OC(=O)*

Assays:
[1] = tested on: 2C'3ABCD portion of the HRV polyprotein precursor; assay: In Vitro Translation of HRV RNA (rabbit reticulocyte lysate, autoradiography); format: biochemical, human rhinovirus; conditions: for Processing of translated viral polyprotein (autoradiography): inhibitor included in cell-free translation assay
Text: In a cell-free translation system, when no inhibitor was present, RNA corresponding to the 2C'3ABCD portion of the HRV polypeptide precursor was translated into the various individual proteins of the virus. […]
Complementary DNA derived from the HRV genone and representing the 2C'3ABCD portion of the HRV polyprotein precursor (Lee W, Monroe S S, Reuckert R R (1993) J. Virol 67:211-2122) was inserted into the commercially available pCITE vector (Novagen, 565 Science Dr., Madison, Wis.). The vector is supplied with the Novagen Red Nova® Lysate translation assay kit, which provides a lysate of New Zealand White rabbit reticulocytes along with other reagents, that allows for efficient cell-free synthesis of proteins from exogenous RNA templates.
The pCITE 2C'3ABCD-containing plasmid was used to transform the JM101 cell line (Stratagene, La Jolla, Calif.) which was then grown under standardard conditions ([…], 37° C.) in 2× YT broth with ampicillin. The plasmid was then isolated by standard CsCl banding procedures.
The DNA was linearized by treatign the plasmid with 2 unitsMlu 1 restriction enzyme per μg DNA for 3 hours at 37° C., followed by proteinase K (50 μg/mL) treatment for 30 minutes at 37° C. The mixture was extracted twice with phenol/chloroform/isoamyl alcohol (1:1:1) followed by two extractions with chloroform/isoamyl alcohol (1:1). A 0.1 volume 3M sodium acetate (NaOAc), pH 5.2 and two volumes of 100% ethanol were added before placing at -80° C. for 60 minutes. The supernatant was decanted and the pellet was rinsed with 70% ethanol, dried under vacuum, and then resuspended in 25 μL Tris-EDTA buffer (10 mM Tris, 1 mM EDTA; pH 7.6). […]
The compounds of Formula I were assayed according to the Red Nova protocol for their ability to inhibit translation of the rhinoviral RNA by the reticulocyte lysate. ^3 H-Leucine (5 mCi/mL) was included in the assay mixture so that translation products could be identified by autoradiography when the samples were analyzed by SDS polyacrylamide gel electrophoresis. […]

HRV = assay: Whole Cell Culture Assay of Anti-HRV Activity (Hela cells, XTT); format: cell-based, human rhinovirus; conditions: concentration not given
Method: A third measure of antiviral activity was performed by determining the effects of selected 3C protease inhibitors of Formula I on HRV infection in cultures of Hela cells.
Commercially available Hela cells are susceptible to HRV infection. The virus enters the cells where it readily replicates and when infection levels become high enough, the Hela cells die. The effect of HRV inhibitors can be measured in Hela cultures by first exposing the cells to HRV and shortly thereafter (before viral infection becomes critical) adding potential inhibitors. Compounds which inhibit 3C protease activity serve to protect the cells from the cytopathic effect of the virus. Comparison of viability in cultures receiving serial dilutions of inhibitor to cultures not receiving any inhibitor allows quantitation of the antiviral effect. Any toxic effect of the inhibitor can also be measured by comparing viability of treated cultures with those cultures which are not infected with the virus.
Viability determinations can be readily made by direct counts of viable cells or by assays representative of viability such as measurement of mitochondrial enzyme activity.
Hela cells were dispersed in a 96-well tissue culture plate at 20,000 cells per well with minimum essential medium containing Earl's balanced salt solution, 1% fetal bovine serum, penicillin (150 units/mL) and streptomycin (150 μg/mL). […]

SMILES | Processing of translated viral polyprotein (autoradiography) [1] | Translation Assay (toxic) ([1]; at the dose tested (dose not given)) | Whole Cell Antiviral Testing (toxic) (HRV)
CC(C)C[C@H](NC(=O)[C@@H](NC(=O)OC(C)(C)C)C(C)C)C(=O)N[C@@H](Cc1ccccc1)C(=O)N[C@H](C=O)CCC(N)=O [Example 5, N-(t-butoxycarbonyl-L-valinyl-L-leucinyl-L-phenylalanyl)-L-gluatamine aldehyde] (Boc-VLFQ-aldehyde) | single unprocessed band |  | 
CC(=O)N[C@@H](CC(C)C)C(=O)N[C@@H](Cc1ccccc1)C(=O)N[C@H](C=O)CCC(N)=O [Example 6, N-(Acetyl-L-leucinyl-L-phenylalanyl)-L-glutamine aldehyde] (Ac-Leu-Phe-Gln-aldehyde) | single unprocessed band |  | 
CC(C)C[C@H](N)C(=O)N[C@@H](Cc1ccccc1)C(=O)N[C@H](C=O)CCC(N)=O [Example 7, N-(L-leucinyl-L-phenylalanyl)-L-glutamine aldehyde] (H-Leu-Phe-Gln-aldehyde) |  | toxic | toxic
